According to patent US20170007610A1, “NOVEL HETEROBICYCLIC COMPOUNDS AS KAPPA OPIOID AGONISTS” (priority 2014, published 2017):
Where two headings read alike, the source gives them in different places.

Key:
kappa opioid receptor [1] = molecular target: T1, kappa opioid receptor (Mus musculus, UniProt P33534); experiment: Ex-vivo KOR agonistic activity, electrically stimulated mouse vas deferens (MVD) model
T1 construct: from tissue; host or cells: mouse vas deferens (male Swiss Albino mice)
Procedure: a) Ex-Vivo KOR Agonistic Activity Testing, Using Electrically Stimulated Mouse Vas Deferens (MVD) Model:
Ex-vivo, the kappa opioid receptor agonistic activity of test compounds were tested on the electrically stimulated mouse vas deferens (MVD) preparations (Henderson et al., Br. J. Pharmacol., 46, 764-766, 1972; Portoghese et al., Life Sci. 36, 801-805, 1985) and IC50 were determined. In general, vas deferentia were taken from male Swiss Albino mice (30-40 g) and suspended in 8 ml organ baths, at 31° C., containing modified Krebs-Henseleit solution, without magnesium sulphate. Each vas deferens was equilibrated for 45 min at 2.6 mN tension and then stimulated at supramaximal voltage with five 1 ms pulses, at a frequency of 0.1 Hz. Concentration-response curves were determined by cumulative dosing. Inhibitory Concentration, 50% (IC50) values were determined by Sigmoidal dose-response (variable slope) equation, using Prizm v 6.01. The kappa opioid receptor specificity was determined by rightward shift in concentration-response curves in presence of 1 nM norbinaltorphimine (norBNI), a selective kappa opioid receptor antagonist.

kappa opioid receptor [2] = molecular target: T2, kappa opioid receptor (Homo sapiens, UniProt P41145); experiment: Invitro KOR agonistic activity, cAMP based functional assay; format: cell-based
T2 construct: grown in complete Ham's F-12 medium
T2 sequence (P41145 whole entry): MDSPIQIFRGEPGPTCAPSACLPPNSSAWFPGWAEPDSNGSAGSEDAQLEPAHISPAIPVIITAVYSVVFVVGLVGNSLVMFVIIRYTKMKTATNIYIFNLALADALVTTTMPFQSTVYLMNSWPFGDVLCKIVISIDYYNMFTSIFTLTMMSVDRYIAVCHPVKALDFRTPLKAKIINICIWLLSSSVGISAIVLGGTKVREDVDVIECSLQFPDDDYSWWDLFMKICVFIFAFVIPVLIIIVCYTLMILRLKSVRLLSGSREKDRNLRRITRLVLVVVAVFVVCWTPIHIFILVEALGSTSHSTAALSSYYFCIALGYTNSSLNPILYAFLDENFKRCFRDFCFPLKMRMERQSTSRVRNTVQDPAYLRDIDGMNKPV

[3] = electrically stimulated mouse vas deferens preparation, cumulative dosing, read-out: Ex-vivo IC50
[4] = cAMP direct ELISA, forskolin 20 μM, agonist 20 minutes, read-out: In-vitro EC50

T1 sequence (P33534 whole entry): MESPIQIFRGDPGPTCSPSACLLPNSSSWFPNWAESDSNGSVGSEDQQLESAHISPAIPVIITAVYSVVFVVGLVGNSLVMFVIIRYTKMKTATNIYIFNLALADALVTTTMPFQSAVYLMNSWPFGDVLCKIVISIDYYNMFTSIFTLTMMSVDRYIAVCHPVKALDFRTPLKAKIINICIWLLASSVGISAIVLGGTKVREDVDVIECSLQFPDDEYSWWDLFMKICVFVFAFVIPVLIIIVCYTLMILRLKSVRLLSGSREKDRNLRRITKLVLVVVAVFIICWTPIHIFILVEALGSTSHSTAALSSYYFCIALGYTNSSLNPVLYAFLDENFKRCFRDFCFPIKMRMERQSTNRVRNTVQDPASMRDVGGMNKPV

| Molecule | IC50 (kappa opioid receptor [1]) [nM] | EC50 (kappa opioid receptor [2]) [nM] | IC50 (kappa opioid receptor [1]; [3]) [nM] | EC50 (kappa opioid receptor [2]; [4]) [nM] |
| --- | --- | --- | --- | --- |
| CN1CCCc2cccc(OCC(=O)N(C)[C@H](CN3CC[C@H](O)C3)c3ccccc3)c21 [Compound 13, N-((S)-2-((S)-3-hydroxypyrrolidin-1-yl)-1-phenylethyl)-N-methyl-2-((1-methyl-1,2,3,4-tetrahydroquinolin-8-yl)oxy)acetamide] | 125 | 0.91 | – | – |
| CN(C(=O)COc1ccc(NS(C)(=O)=O)c2ncccc12)[C@H](CN1CC[C@H](O)C1)c1cccc(OCC(=O)O)c1 [Compound 51] | – | – | 16 | 0.11 |
| CN(C(=O)COc1cc(NS(C)(=O)=O)c2ccccc2n1)[C@H](CN1CC[C@H](O)C1)c1ccccc1 [Compound 3, N-((S)-2-((S)-3-hydroxypyrrolidin-1-yl)-1-phenylethyl)-N-methyl-2-((4-methylsulfonamido)quinolin-2-yloxy)acetamide] | 414 | 0.035 | – | – |
| CN(C(=O)COc1ccc2c(c1)CCCN2)[C@H](CN1CC[C@H](O)C1)c1ccccc1 [Compound 21, N-((S)-2-((S)-3-hydroxypyrrolidin-1-yl)-1-phenylethyl)-N-methyl-2-((1,2,3,4-tetrahydroquinolin-6-yl)oxy)acetamide] | 570 | 1.23 | – | – |
| CN(C(=O)COc1ccc(NCCO)c2ncccc12)[C@H](CN1CC[C@H](O)C1)c1ccccc1 [Compound 41] | 254 | 1.32 | – | – |
| CN(C(=O)COc1cccc2c1NCC2)[C@H](CN1CC[C@H](O)C1)c1ccccc1 [Compound 29, N-((S)-2-((S)-3-hydroxypyrrolidin-1-yl-)-1-phenylethyl)-2-(indolin-7-yloxy)-N-methylacetamide] | 147 | 0.11 | – | – |
| CNS(=O)(=O)Nc1ccc(OCC(=O)N(C)[C@H](CN2CC[C@H](O)C2)c2ccccc2)c2cccnc12 [Compound 23, N-((S)-2-((S)-3-hydroxypyrrolidin-1-yl)-1-phenylethyl)-N-methyl-2-((8-((N-methylsulfamoyl)amino)quinolin-5-yl)oxy)-acetamide] | 8.4 | 0.017 | – | – |
| CN(C(=O)COc1ccc(NS(C)(=O)=O)c2ncccc12)[C@H](CN1CC[C@H](O)C1)c1cccc([N+](=O)[O-])c1 [Compound 42, N-((S)-2-((S)-3-hydroxypyrrolidin-1-yl)-1-(3-nitrophenyl)ethyl)-N-methyl-2-((8-(methylsulfonamido)quinolin-5-yl)oxy) acetamide] | 50 | 0.044 | – | – |
| CN(C(=O)COc1ccc(NS(C)(=O)=O)c2ncccc12)[C@H](CN1CC[C@H](O)C1)c1ccccc1 [Compound 5, N-((S)-2-((S)-3-hydroxypyrrolidin-1-yl)-1-phenylethyl)-N-methyl-2-((8-methylsulfonamido)quinolin-5-yloxy)acetamide] | 5.6 | 0.013 | – | – |
| CCN(CC)S(=O)(=O)Nc1ccc(OCC(=O)N(C)[C@H](CN2CC[C@H](O)C2)c2ccccc2)c2cccnc12 [Compound 25, 2-((8-((N,N-diethylsulfamoyl)amino)quinolin-5-yl)oxy)-N-((S)-2-((S)-3-hydroxypyrrolidin-1-yl)-1-phenylethyl)-N-methyl-acetamide] | 8.1 | 0.003 | – | – |
| CN(C(=O)COc1cccc2ncccc12)[C@H](CN1CC[C@H](O)C1)c1cccc(NS(C)(=O)=O)c1 [Compound 46] | 9.5 | 0.042 | – | – |
| COCC(=O)Nc1ccc(OCC(=O)N(C)[C@H](CN2CC[C@H](O)C2)c2ccccc2)c2cccnc12 [Compound 35, N-((S)-2-((S)-3-hydroxypyrrolidin-1-yl)-1-phenylethyl)-2-((8-(2-methoxyacetamido)quinolin-5-yl)oxy)-N-methylacetamide] | 48 | 0.06 | – | – |
| CN(C(=O)COc1cccc2c1N(S(C)(=O)=O)CCC2)[C@H](CN1CC[C@H](O)C1)c1ccccc1 [Compound 12, N-((S)-2-((S)-3-hydroxypyrrolidin-1-yl)-1-phenylethyl)-N-methyl-2-((1-(methylsulfonyl)-1,2,3,4-tetrahydroquinolin-8-yl)oxy)acetamide] | 2 | 0.005 | – | – |
| CN(C(=O)COc1ccc(NS(C)(=O)=O)c2c1NCCC2)[C@H](CN1CC[C@H](O)C1)c1ccccc1 [Compound 14, N-((S)-2-((S)-3-hydroxypyrrolidin-1-yl)-1-phenylethyl)-N-methyl-2-((5-(methylsulfonamido)-1,2,3,4-tetrahydroquinolin-8-yl)oxy)acetamide] | 5.4 | 0.012 | – | – |
| N-((S)-2-((S)-3-hydroxypyrrolidin-1-yl)-1-phenylethyl)- N-methyl-2-((8-sulfonamido)quinolin-5-yloxy)acetamide [Compound 36] | – | – | 7.8 | 1.12 |
| CN(C(=O)COc1ccnc2ccc(NS(C)(=O)=O)cc12)[C@H](CN1CC[C@H](O)C1)c1ccccc1 [Compound 4, N-((S)-2-((S)-3-hydroxypyrrolidin-1-yl)-1-phenylethyl)-N-methyl-2-((6-methylsulfonamido)quinolin-4-yloxy)acetamide] | 1500 | 1.21 | – | – |
| CN(C(=O)COc1ccc(NS(C)(=O)=O)c2nccnc12)[C@H](CN1CC[C@H](O)C1)c1ccccc1 [Compound 27, N-((S)-2-((S)-3-hydroxypyrrolidin-1-yl-)-1-phenylethyl)-N-methyl-2-((8-(methylsulfonamido)quinoxain-5-yl)oxy)acetamide] | 169 | 2.11 | – | – |
| CN(C(=O)COc1ccc(NS(C)(=O)=O)c2ncccc12)[C@H](CN1CC[C@H](O)C1)c1cccc(C(F)(F)F)c1 [Compound 53, N-((S)-2-((S)-3-hydroxypyrrolidin-1-yl)-1-(3-(trifluoromethyl)phenyl)ethyl)-N-methyl-2-((8-(methylsulfonamido)quinolin-5-yl)oxy) acetamide] | 73 | 0.68 | – | – |
| CC(=O)N1CCCc2c(OCC(=O)N(C)[C@H](CN3CC[C@H](O)C3)c3ccccc3)ccc(NS(C)(=O)=O)c21 [Compound 31, 2-((l-acetyl-8-(methylsulfonamido)-1,2,3,4-tetrahydroquinolin-5-yl)oxy)-N-((S)-2-((S)-3-hydroxypyrrolidin-1-yl)-1-phenylethyl)-N-methylacetamide] | 118 | 0.51 | – | – |
| CN(C(=O)COc1ccc2ccccc2n1)[C@H](CN1CC[C@H](O)C1)c1ccccc1 [Compound 1, N-((S)-2-((S)-3-hydroxypyrrolidin-1-yl)-1-phenylethyl)-N-methyl-2-(quinolin-2-yloxy)acetamide] | 3.5 | 0.022 | – | – |
| CN(C(=O)COc1ccc2ccoc2c1)[C@H](CN1CC[C@H](O)C1)c1cccc(NS(C)(=O)=O)c1 [Compound 56, 2-(benzofuran-6-yloxy)-N-((S)-2-((S)-3-hydroxypyrrolidin-1-yl)-1-(3-(methylsulfonamido)phenyl)ethyl)-N-methylacetamide] | 88 | 1.11 | – | – |
| CN(C(=O)COc1ccc([N+](=O)[O-])c2c1NCCC2)[C@H](CN1CC[C@H](O)C1)c1ccccc1 [Compound 8, N-((S)-2-((S)-3-hydroxypyrrolidin-1-yl)-1-phenylethyl)-N-methyl-2-((5-nitroquinolin-1,2,3,4-tetrahydroquinolin-8-yl)oxy)acetamide] | 6.2 | 0.018 | – | – |
| CN(C(=O)COc1ccc(NS(=O)(=O)CCl)c2ncccc12)[C@H](CN1CC[C@H](O)C1)c1ccccc1 [Compound 26] | 29 | 0.012 | – | – |
| CN(C(=O)COc1ncc(NS(C)(=O)=O)c2ccccc12)[C@H](CN1CC[C@H](O)C1)c1ccccc1 [Compound 10, N-((S)-2-((S)-3-hydroxypyrrolidin-1-yl)-1-phenylethyl)-N-methyl-2-((4-methylsulfonamido)isoquinolin-1-yloxy)acetamide] | 54 | 0.089 | – | – |
| N-((S)-2-((S)-3-hydroxypyrrolidin-1-yl)-1-phenylethyl)- N-methyl-2-((8-(pyrrolidine-1-sulfonamido)-1,2,3,4- tetrahydroquinolin-5-yloxy)acetamide [Compound 39] | – | – | 0.95 | 0.088 |
| Cc1cccc([C@@H](CN2CC[C@H](O)C2)N(C)C(=O)COc2ccc(NS(C)(=O)=O)c3ncccc23)c1 [Compound 54, N-((S)-2-((S)-3-hydroxypyrrolidin-1-yl)-1-(3-methyl)ethyl)-N-methyl-2-((8-(methylsulfonamido)quinolin-5-yl)oxy)acetamide] | 14 | 0.098 | – | – |
| COC(=O)Nc1cccc([C@@H](CN2CC[C@H](O)C2)N(C)C(=O)COc2ccc3c(c2)OCO3)c1 [Compound 58, Methyl-(3-((S)-1-(2-(benzo[d][1,3]dioxol-5-yloxy)-N-methylacetamido)-2-((S)-3-hydroxypyrrolidin-1-yl)-ethyl)phenyl)carbamate] | 9.8 | 0.098 | – | – |
| CN(C(=O)COc1ccc2occc2c1)[C@H](CN1CC[C@H](O)C1)c1ccccc1 [Compound 16] | 4 | 0.04 | – | – |
| CN(C(=O)COc1ccc(NS(=O)(=O)N2CCCC2)c2ncccc12)[C@H](CN1CC[C@H](O)C1)c1ccccc1 [Compound 38] | 7.4 | 0.95 | – | – |
